Each molecule was assayed against MNK2a (Homo sapiens (Human), UniProt Q9HBH9) (assay: MNK2a in vitro kinase assay (Assay 2), ADP-Glo). Conditions: read-out: MNK2 IC50.
Type: biochemical
Method: B. MNK2a In vitro Kinase Assay (Assay 2)
ASSAY SETUP: The inhibition of kinase activity of MNK2a was assessed using pre-activated GST-MNK2a. The white, 384-well OptiPlate F plates were purchased from PerkinElmer. The ADP-Glo Kinase Assay (including ultra pure ATP) was purchased from Promega (V9103). Activated MNK2a was obtained as described in WO2011/104340. […] ID No. 5 of WO 2011/104340 by the C-terminal —CONH2 group, was purchased from Thermo Fisher Scientific. All other materials were of highest grade commercially available. Compounds are tested in either serial dilutions or single dose concentrations. The compound stock solutions are 10 mM in 100% DMSO The serial compound dilutions are prepared in 100% DMSO followed by 1:27.3 intermediate dilution in assay buffer. The final DMSO concentration in assay will be <3%. In the 384-well plates 3 μl of test compound from the intermediate dilution is mixed with 4 μl of the activated MNK2 enzyme (final concentration of 10 nM) and 4 μl of the peptide (final concentration of 25 μM)/ultra pure ATP (final concentration of 20 μM), all dissolved in assay buffer. This step is followed by an incubation time of 90 min, then 10 μl of ADP Glo reagent are added, followed by 40 min of incubation. Then 20 μl of kinase detection reagent are admixed. The plates are sealed and after an incubation period of 30 min, the luminescence signal is measured in an Envision reader to determine the amount of produced ADP. All incubation steps are performed at room temperature. The assay buffer consists of 20 mM HEPES, 2 mM DTT, 0.01% BSA, 20 mM MgCl2 and 0.1% Pluronic F-127.
The luminescent signal generated is proportional to the ADP concentration produced and is correlated with activated MNK2 activity. The analysis of the data is performed by the calculation of the percentage of ATP consumption of activated MNK2 in the presence of the test compound compared to the consumption of ATP in the presence of activated MNK2 without compound. (RLU(sample)−RLU(low control))*100/(RLU(high value)−RLU(low control)) [RLU=relative luminescence units]
[…] values based on dose response curves are calculated with the AssayExplorer software.

Chain of MNK2a (Q9HBH9 whole entry): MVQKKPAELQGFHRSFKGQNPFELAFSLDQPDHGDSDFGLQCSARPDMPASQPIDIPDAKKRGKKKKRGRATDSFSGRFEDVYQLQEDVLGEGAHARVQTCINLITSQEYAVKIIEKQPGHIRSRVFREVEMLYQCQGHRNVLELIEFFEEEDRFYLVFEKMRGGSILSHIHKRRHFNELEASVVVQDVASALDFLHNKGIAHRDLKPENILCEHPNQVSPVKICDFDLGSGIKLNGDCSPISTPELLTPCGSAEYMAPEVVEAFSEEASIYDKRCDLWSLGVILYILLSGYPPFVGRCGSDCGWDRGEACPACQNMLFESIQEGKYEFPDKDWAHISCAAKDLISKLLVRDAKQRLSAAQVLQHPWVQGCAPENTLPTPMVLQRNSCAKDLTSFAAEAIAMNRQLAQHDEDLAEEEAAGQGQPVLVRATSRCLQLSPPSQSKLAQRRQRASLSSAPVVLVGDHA

Row | Structure (SMILES) | IC50
1 | Cc1cc(N=S2(=O)CCC2)cc2ncnc(Nc3ccc(F)cc3O[C@H](C)C(=O)NC(C)C)c12 [Example 4.081] | 2 nM
2 | CC(C)NC(=O)[C@@H](C)Oc1cc(F)ccc1Nc1ncnc2cc(N=S(C)(C)=O)cc(Cl)c12 [Example 4.076] | 4 nM
3 | C[C@@H](Oc1cc(F)ccc1Nc1ncnc2cc(N=S(C)(=O)C(C)(C)C)cc(F)c12)C(=O)NCC(F)(F)F (stereo partly shown) [Example 2.040] | 18 nM
4 | C[C@H](C#N)NC(=O)[C@@H](C)Oc1cc(F)ccc1Nc1ncnc2cc(N=S3(=O)CCC3)cc(Cl)c12 [Example 4.112] | 2 nM
5 | Cc1cc(N=S(C)(=O)C2CCNC2)cc2ncnc(Nc3ccc(F)cc3O[C@H](C)C(=O)NCC(F)(F)F)c12 (stereo partly shown) [Example 2.028] | 3 nM
6 | Cc1cc(N=S2(=O)CCC2)cc2ncnc(Nc3ccc(F)cc3O[C@H](C)C(=O)NCC(F)F)c12 [Example 4.141] | 1 nM
7 | COc1cc(N=S2(=O)CCC2)cc2ncnc(Nc3ccc(F)cc3O[C@H](C)C(=O)N[C@@H](C)C(F)(F)F)c12 [Example 4.098] | 4 nM
8 | Cc1cc(N=S2(=O)CCC2)cc2ncnc(Nc3ccc(Cl)nc3O[C@H](C)C(=O)N[C@@H](C)C#N)c12 [Example 4.140] | 1 nM
9 | CC(NC(=O)[C@@H](C)Oc1cc(F)ccc1Nc1ncnc2cc(N=S3(=O)CCC3)cc(C(F)F)c12)C(F)F (stereo partly shown) [Example 4.146] | 4 nM
10 | C[C@@H](C#N)NC(=O)[C@@H](C)Oc1cc(Cl)ccc1Nc1ncnc2cc(N=S3(=O)CCC3)cc(F)c12 [Example 4.077] | 2 nM
11 | C[C@@H](Oc1cc(F)ccc1Nc1ncnc2cc(N=S(C)(C)=O)cc(Cl)c12)C(=O)NC(CF)CF [Example 4.120] | 2 nM
12 | C[C@@H](Oc1cc(F)ccc1Nc1ncnc2cc(N=S3(=O)CCC3)cc(F)c12)C(=O)NC(CF)CF [Example 4.128] | 2 nM
13 | COc1cc(N=S2(=O)CCCC2)cc2ncnc(Nc3ccc(F)cc3O[C@H](C)C(=O)NCC(F)(F)F)c12 [Example 3.011] | 2 nM
14 | Cc1cc(N=S2(=O)CCC2)cc2ncnc(Nc3ccc(F)cc3O[C@H](C)C(=O)N(CC(F)(F)F)CC(F)(F)F)c12 [Example 3.052] | 3 nM
15 | C[C@@H](Oc1cc(F)ccc1Nc1ncnc2cc(N=S3(=O)CCC3)cc(F)c12)C(=O)NCCF [Example 4.117] | 3 nM
16 | Cc1cc(N=S2(=O)CC[C@H](N)C2)cc2ncnc(Nc3ccc(F)cc3O[C@H](C)C(=O)NCC(F)(F)F)c12 (stereo partly shown) [Example 2.019] | 1 nM
17 | C[C@@H](Oc1cc(F)ccc1Nc1ncnc2cc(N=S(C)(=O)C3CCOCC3)cc(F)c12)C(=O)NCC(F)(F)F (stereo partly shown) [Example 2.025] | 7 nM
18 | C[C@H](C#N)NC(=O)[C@@H](C)Oc1cc(F)ccc1Nc1ncnc2cc(N=S3(=O)CCC3)cc(F)c12 [Example 4.113] | 1 nM
19 | Cc1cc(N=S(C)(=O)C2CC2)cc2ncnc(Nc3ccc(F)cc3O[C@H](C)C(=O)NCC(F)(F)F)c12 (stereo partly shown) [Example 2.042] | 5 nM
20 | Cc1cc(N=S2(=O)CCC2)cc2ncnc(Nc3ccc(F)cc3O[C@H](C)C(=O)NC(C)C(F)F)c12 (stereo partly shown) [Example 4.109] | 2 nM

Row | Structure (SMILES) | IC50
21 | Cc1cc(N=S(C)(C)=O)cc2ncnc(Nc3ccc(F)cc3OC(C)C3CCCO3)c12 (stereo not shown) [Example 3.010] | 23 nM
22 | Cc1cc(N=S2(=O)CC3(COC3)C2)cc2ncnc(Nc3ccc(F)cc3O[C@H](C)C(=O)NCC(F)(F)F)c12 [Example 2.038] | 3 nM
23 | C[C@@H](C#N)NC(=O)[C@@H](C)Oc1cc(F)ccc1Nc1ncnc2cc(N=S3(=O)CCC3)cc(F)c12 [Example 4.106] | 2 nM
24 | Cc1cc(N=S(C)(C)=O)cc2ncnc(Nc3ccc(F)cc3O[C@H](C)C(=O)N(CC(F)F)CC(F)F)c12 [Example 3.053] | 2 nM
25 | Cc1cc(N=S(C)(C)=O)cc2ncnc(Nc3ccc(F)cc3OCC3CNC(=O)C3)c12 (stereo not shown) [Example 3.037] | 3 nM
26 | Cc1cc(N=S(C)(=O)C(C)C)cc2ncnc(Nc3ccc(F)cc3O[C@H](C)C(=O)NCC(F)(F)F)c12 (stereo partly shown) [Example 2.046] | 3 nM
27 | Cc1cc(N=S(C)(C)=O)cc2ncnc(Nc3ccc(F)cc3OC(C)C(F)(F)F)c12 (racemic) [Example 1.013] | 2 nM
28 | Cc1cc(N=S2(=O)CCCC2)cc2ncnc(Nc3ccc(F)cc3O[C@H](C)C(=O)NCC#N)c12 [Example 4.007] | 2 nM
29 | Cc1cc(N=S(C)(C)=O)cc2ncnc(Nc3ccc(F)cc3O[C@H](CO)C(=O)NCC(F)(F)F)c12 [Example 7.011] | 3 nM
30 | Cc1nnc(C(C)Oc2cc(F)ccc2Nc2ncnc3cc(N=S(C)(C)=O)cc(C)c23)o1 (stereo not shown) [Example 3.041] | 33 nM
31 | C[C@@H](C#N)NC(=O)[C@@H](C)Oc1cc(F)ccc1Nc1ncnc2cc(N=S3(=O)CCC3)cc(C(F)F)c12 [Example 4.102] | 2 nM
32 | C[C@@H](Oc1cc(F)ccc1Nc1ncnc2cc(N=S3(=O)CCCC3)cc(F)c12)C(=O)NCC#N [Example 2.033] | 4 nM
33 | C[C@@H](Oc1cc(F)ccc1Nc1ncnc2cc(N=S(C)(C)=O)cc(C(F)(F)F)c12)C(=O)NCC(F)(F)F [Example 4.086] | 2 nM
34 | Cc1cc(N=S2(=O)CCCC2)cc2ncnc(Nc3ccc(F)cc3O[C@H](C)C(=O)N(C)C3CCCC3)c12 [Example 4.026] | 3 nM
35 | Cc1cc(N=S(C)(C)=O)cc2ncnc(Nc3ccc(F)cc3OC(C)c3ccnn3C)c12 (stereo not shown) [Example 3.023] | 42 nM
36 | C[C@@H](Oc1cc(F)ccc1Nc1ncnc2cc(N=S3(=O)CCC3)cc(F)c12)C(=O)NCC#N [Example 4.097] | 1 nM
37 | Cc1cc(N=S(C)(C)=O)cc2ncnc(Nc3ccc(F)cc3OCC#N)c12 [Example 3.005] | 1 nM
38 | COc1cc(N=S2(=O)CCC2)cc2ncnc(Nc3ccc(F)cc3O[C@H](C)C(=O)NCC#N)c12 [Example 4.115] | 2 nM
39 | Cc1cc(N=S(C)(C)=O)cc2ncnc(Nc3cccnc3O[C@H](C)C(=O)NCC(F)(F)F)c12 [Example 2.013] | 2 nM
40 | COc1cc(N=S(C)(C)=O)cc2ncnc(Nc3ccc(F)cc3O[C@H](C)C(=O)NCC(F)(F)F)c12 [Example 3.040] | 6 nM

Row | Structure (SMILES) | IC50
41 | Cc1cc(N=S(C)(=O)C2CCOCC2)cc2ncnc(Nc3ccc(F)cc3O[C@H](C)C(=O)NCC(F)(F)F)c12 (stereo partly shown) [Example 2.029] | 4 nM
42 | COc1cc(N=S(C)(=O)C2CC2)cc2ncnc(Nc3ccc(F)cc3O[C@H](C)C(=O)NCC(F)(F)F)c12 (stereo partly shown) [Example 2.030] | 4 nM
43 | COc1cc(N=S2(=O)CCC2)cc2ncnc(Nc3ccc(Cl)cc3O[C@H](C)C(=O)NCC(F)(F)F)c12 [Example 4.087] | 2 nM
44 | Cc1cc(N=S2(=O)CCCC2)cc2ncnc(Nc3ccc(F)cc3OC(C)C(C)(C)C#N)c12 (stereo not shown) [Example 2.007] | 3 nM
45 | Cc1cc(N=S2(=O)CCC2)cc2ncnc(Nc3ccc(F)cc3O[C@H](C)C(=O)NC34CC(C3)C4)c12 [Example 4.082] | 2 nM
46 | C[C@@H](C#N)NC(=O)[C@@H](C)Oc1cc(Cl)ccc1Nc1ncnc2cc(N=S3(=O)CCCC3)cc(F)c12 [Example 4.093] | 1 nM
47 | Cc1cc(N=S(C)(C)=O)cc2ncnc(Nc3ccc(C#N)cc3OC(C)C(F)(F)F)c12 (stereo not shown) [Example 1.001] | 17 nM
48 | CC(C#N)NC(=O)[C@@H](C)Oc1cc(F)ccc1Nc1ncnc2cc(N=S3(=O)CCC3)cc(F)c12 (stereo partly shown) [Example 4.099] | 2 nM
49 | Cc1cc(N=S2(=O)CCCC2)cc2ncnc(Nc3ccc(F)cc3O[C@H](C)C(=O)N3CCCC3)c12 [Example 4.006] | 5 nM
50 | Cc1cc(N=S(C)(C)=O)cc2ncnc(Nc3ccc(F)cc3O[C@H](C)C(=O)N3CC[S+]([O-])CC3)c12 [Example 4.030] | 11 nM
51 | CCCNC(=O)[C@@H](C)Oc1cc(F)ccc1Nc1ncnc2cc(N=S3(=O)CCCC3)cc(C)c12 [Example 4.033] | 2 nM
52 | Cc1cc(N=S2(=O)CCC2)cc2ncnc(Nc3cccnc3O[C@H](C)C(=O)NCC(F)F)c12 [Example 2.021] | 2 nM
53 | Cc1cc(N=S2(=O)CC3(COC3)C2)cc2ncnc(Nc3ccc(Cl)cc3O[C@H](C)C(=O)N[C@@H](C)C(F)(F)F)c12 [Example 2.045] | 1 nM
54 | Cc1cc(N=S2(=O)CCC2)cc2ncnc(Nc3ccc(Cl)nc3O[C@H](C)C(=O)N[C@@H](C)C(F)(F)F)c12 [Example 4.094] | 1 nM
55 | Cc1cc(N=S2(=O)CCC2)cc2ncnc(Nc3ccc(Cl)nc3O[C@H](C)C(=O)NCC(F)(F)F)c12 [Example 4.124] | 1 nM
56 | C[C@H](NC(=O)[C@@H](C)Oc1cc(F)ccc1Nc1ncnc2cc(N=S3(=O)CCC3)cc(Cl)c12)C(F)(F)F [Example 4.096] | 1 nM
57 | Cc1cc(N=S2(=O)CCC2)cc2ncnc(Nc3ccc(F)cc3O[C@H](C)C(=O)NC(C(F)(F)F)C(F)(F)F)c12 [Example 2.041] | 1 nM
58 | Cc1cc(N=S(C)(C)=O)cc2ncnc(Nc3ccc(F)cc3O[C@H](C)C(=O)N3CCCC3)c12 [Example 4.016] | 20 nM

— US9139577B2, “Sulfoximine substituted quinazolines for pharmaceutical compositions” (Boehringer Ingelheim International GmbH, priority 2013, dated 2015)
